From ChEMBL document CHEMBL1132385 (J Med Chem, 1999) come the findings set out here.

Structures are written as SMILES. pKi: −log10 of the molar value.

This assay concerns the target Neuronal acetylcholine receptor. Kind of assay: Evaluated for its binding affinity towards Nicotinic acetylcholine receptor in rat brain homogenate. It is filed as tissue-based.

On to `CN1[C@H](CCc2ccccc2)CCC[C@@H]1C[C@@H](O)c1ccccc1` [8R-hydroxylobelane], for which the negative-log Ki (pKi) – broadly, the negative decadic logarithm of the Ki, by convention in mol/L – is 6.47. In turn, `CN1[C@@H](CC(=O)c2ccccc2)CCC[C@H]1C[C@H](Cl)c1ccccc1` gave a pKi of 8.30. In turn, `CN1CCCCC1CCc1ccccc1` (centres undefined) had a pKi of 5.60.

`CN1[C@@H](C[C@@H](O)c2ccccc2)CCC[C@H]1C[C@H](O)c1ccccc1` gave a negative logarithm of the Ki (pKi) of 6.52. Turning to `CN1[C@@H](CCc2ccccc2)CCC[C@H]1CCc1ccccc1` [LOBELANE], the negative logarithm of the Ki (pKi) is below 5.00. Compound `CN(CCC(=O)c1ccccc1)CCC(=O)c1ccccc1` had a negative logarithm of the Ki (pKi) below 5.00. Regarding `CN1[C@@H](CC(=O)c2ccccc2)CCC[C@H]1CC(=O)c1ccccc1`, the pKi is 5.11.

Turning to `CN(C)CCC(O)c1ccccc1` (centres undefined), the pKi is below 5.00. Under `C[N+]1(C)[C@@H](CC(=O)c2ccccc2)CCC[C@H]1C[C@H](O)c1ccccc1` stands 5.69; under `CN1CCCC[C@H]1C[C@H](O)c1ccccc1`, below 5.00. As to `CN1[C@@H](CCc2ccccc2)CCC[C@H]1C[C@H](O)c1ccccc1`, the negative logarithm of the Ki (pKi) is 6.63. In turn, `CN1[C@H](CCc2ccccc2)CCC[C@@H]1CC(=O)c1ccccc1` had a negative-log Ki (pKi) of 6.96. Compound `CN(CCCc1ccccc1)CCCc1ccccc1` had a negative logarithm of the Ki (pKi) below 5.00. The compound `CN1[C@@H](CC(=O)c2ccccc2)CCC[C@H]1/C=C/c1ccccc1` showed a negative logarithm of the Ki (pKi) of 5.96.
